Assay results as given in patent US20180116993A1, “MODULATORS OF FARNESOID X RECEPTOR AND METHODS FOR THE USE THEREOF” (XIAMEN UNIVERSITY, priority 2015, published 2018).
Where two headings read alike, the source gives them in different places. Marks after values point to notes of the source that are not given here.

How the values were obtained:
db/db mice = assay: Hepatic triglyceride, liver histology, serum ALT and ALP in high-fat diet fed db/db mice; assay type: in vivo, mouse; details: 10 mg/kg once daily for 10 days
Procedure: Liver tissues fixed in 4% paraformaldehyde in example 5 were performed for H&E staining by standard procedures. Liver tissues fixed in 4% paraformaldehyde were embedded in optimum cutting temperature compound (OCT), and cryosectioned. Frozen liver sections were stained with 0.3% oil red O according to standard procedures.
The triglyceride levels in liver tissues from mice treated with compounds were analyzed using Tissue triglyceride assay kit (Applygen, Beijing, China).
Alkaline Phosphatase (ALP) is a marker of cholestasis. Cholestasis can be suspected when there is an elevation of ALP enzymes. In fact, greater than 90% of patients with bile stasis will have an elevated alkaline phosphatase. […] The aminotransferase is used to evaluate the presence of hepatitis and may be elevated in cholestasis or with common bile duct obstruction. In this example, 8-10 week age db/db mice were fed with high-fat diet and treated with 10 mg/kg of compounds once daily for 10 days as in Example 5. The activities of serum ALP and ALT were analyzed using ALP kit and ALT kit, respectively (Nanjing Jiancheng Engineering Institute, China).

[1] = tested on: inflammatory cytokines in tissues of db/db mice; assay: Inflammatory cytokine mRNA levels in tissues of high-fat diet fed db/db mice (RT-PCR); assay type: in vivo, mouse; details: 5 mg/kg
From the text: In this example, we detected the levels of various inflammatory cytokines including iNOS, IFNγ, TGFβ, TNFα, COX2, IL-1β, IL-6, SAA1, MIP-1α and CD36 in liver, kidney, white adipose tissue (WAT) in various mice models, including wild type mice treated with APAP in example 4, high-fat diet fed diabetic and obesity db/db and KK-Ay mice in example 5, high-fat diet fed wild-type mice in Example 5, as well as in primary hepatocytes with LPS induced inflammation, using RT-PCR.

[2] = tested on: human colorectal adenocarcinoma HCT15 cells; assay: MTT cell viability assay, HCT15; assay type: cell-based; details: 48 h, read-out: Cell viability as a percentage of the cells treated with DMSO, HCT15
From the text: (§1) The MTT assay is a colorimetric assay for assessing cell metabolic activity. It is widely used in high-throughput screening of antitumor drugs due to its high sensitivity and economical features. In this example, MTT was used to detect the inhibitory effects of compounds on various cancer cell lines. Cancer cells including human colorectal adenocarcinoma HCT15 cells, RA-resistant human colon cancer HCT116 cells, human cervical carcinoma Hela cells, human hepatoma HepG2 cells and human breast cancer MCF7 cells were cultured in DMEM medium containing 10% fetal bovine serum. 20 uM or 40 uM of compounds were administered to treat cells, cell viability is detected by MTT assay and expressed as a percentage of the cells treated with DMSO (Table 4).

full-length FXR = biological target: T1, full-length FXR (Homo sapiens, UniProt Q96RI1); assay: Cell-based FXR transactivation, EcRE luciferase reporter in COS-7 cells; details: Table 2
T1 construct: The cells were co-transfected with plasmids encoding full-length FXR and the cognate luciferase reporter EcRE-Luc; expressed in transfected cells; host or cells: COS-7
T1 sequence (Q96RI1 1-486): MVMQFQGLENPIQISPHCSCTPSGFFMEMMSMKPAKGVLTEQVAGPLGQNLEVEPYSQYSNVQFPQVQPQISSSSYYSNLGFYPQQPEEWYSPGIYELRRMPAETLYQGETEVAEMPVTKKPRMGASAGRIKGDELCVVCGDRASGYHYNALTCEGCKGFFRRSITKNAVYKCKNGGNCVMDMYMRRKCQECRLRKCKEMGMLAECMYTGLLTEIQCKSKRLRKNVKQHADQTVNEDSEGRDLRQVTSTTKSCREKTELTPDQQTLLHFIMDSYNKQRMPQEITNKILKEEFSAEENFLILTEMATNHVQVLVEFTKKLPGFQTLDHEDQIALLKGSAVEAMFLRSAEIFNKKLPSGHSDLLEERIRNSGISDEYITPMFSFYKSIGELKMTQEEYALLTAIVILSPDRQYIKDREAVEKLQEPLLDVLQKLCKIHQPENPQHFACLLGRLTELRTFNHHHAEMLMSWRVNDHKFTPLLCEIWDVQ
Procedure: COS-7 cells were cotransfected with plasmids encoding full length FXR.
For transient transfection assay, COS-7 cells were maintained in DMEM containing 10% fetal bovine serum and were transiently transfected using Lipofectamine 2000 (Invitrogen). Before 24 h of transfection, 24-well plates were plated. The cells were co-transfected with plasmids encoding full-length FXR and the cognate luciferase reporter EcRE-Luc. Ligands were added 5 hours after transfection. Cells were harvested 24 hours later for the luciferase assays according to the manufacturer's instructions (Dual-Luciferase® Reporter Assay System, Promega). Luciferase activities were normalized to renilla activity co-transfected as an internal control.

[3] = biological target: T2, FXR ligand binding domain (LBD) (Homo sapiens, UniProt Q96RI1); assay: AlphaScreen assay: FXR LBD recruitment of coregulator peptide motifs (SRC2-3, SRC1-2); assay type: biochemical; details: Table 2
T2 construct: made in house
T2 sequence (Q96RI1 262-486 limits assumed): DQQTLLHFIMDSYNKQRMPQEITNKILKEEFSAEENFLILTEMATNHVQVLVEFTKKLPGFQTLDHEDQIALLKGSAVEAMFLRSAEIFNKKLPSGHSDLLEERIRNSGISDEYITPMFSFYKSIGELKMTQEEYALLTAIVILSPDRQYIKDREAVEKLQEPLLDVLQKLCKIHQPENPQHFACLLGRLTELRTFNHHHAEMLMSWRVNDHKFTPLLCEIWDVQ
Procedure: In search of novel ligands for FXR, we used FXR ligand binding domain (LBD) as a bait to screen chemical libraries based on AlphaScreen biochemical assay, which determines the efficacy of small molecules in influencing binding affinity of FXR with coregulator peptides (see e.g., Jin et al., (2013) Nature communications 4, 1937).
The binding of the cofactor peptide motifs to FXR ligand binding domain (LBD) in response to ligands was determined by AlphaScreen assays using a hexahistidine detection kit from Perkins-Elmer. The FXR LBD protein was purified as described previously (see e.g., Jin et al., (2013) Nature communications 4, 1937). The experiments were conducted with approximately 20-40 nM receptor LBD and 20 nM biotinylated cofactor peptides in the presence of 5 μg/ml donor and acceptor beads in a buffer containing 50 mM MOPS, 50 mM NaF, 0.05 mM CHAPS, and 0.1 mg/ml bovine serum albumin, all adjusted to a pH of 7.4.

[4] = tested on: human hepatoma HepG2 cells; assay: MTT cell viability assay, HepG2; assay type: cell-based; details: 48 h, read-out: Cell viability as a percentage of the cells treated with DMSO, HepG2
From the text: as §1

[5] = tested on: human cervical carcinoma Hela cells; assay: MTT cell viability assay, Hela; assay type: cell-based; details: 48 h, read-out: Cell viability as a percentage of the cells treated with DMSO, Hela
From the text: as §1

[6] = tested on: RA-resistant human colon cancer HCT116 cells; assay: MTT cell viability assay, HCT116; assay type: cell-based; details: 48 h, read-out: Cell viability as a percentage of the cells treated with DMSO, HCT116
From the text: as §1

[7] = tested on: human breast cancer MCF7 cells; assay: MTT cell viability assay, MCF-7; assay type: cell-based; details: 48 h, read-out: Cell viability as a percentage of the cells treated with DMSO, MCF-7
From the text: as §1

COc1cc(C(=O)OC2CCC3CCCCC3C2)ccc1N (stereo not drawn) [XD-32, decahydro-naphthalen-2-yl 4-amino-3-methoxybenzoate]
Serum ALP (U/L) (db/db mice; vehicle 129 ± 15): 83 ± 23^a U/L | Serum ALT (U/L) (db/db mice; vehicle 377 ± 48, Table 17): 110 ± 42^a U/L | mRNA level of iNOS (fold), Liver tissue ([1]; vehicle 1.06 ± 0.14): 0.22 ± 0.12^a fold | mRNA level of iNOS (fold), Colon tissue ([1]; vehicle 1.12 ± 0.23): 0.45 ± 0.13^a fold | viability at 20 µM ([2]; HCT-15, 20 uM): 80 ± 7% | viability at 40 µM ([2]; HCT-15, 40 uM): 35 ± 7% | Cell-based FXR transactivation Fold changes by 5 μM compound (full-length FXR; 5 μM compound, positive: induction, minus: repression): −5 | EC50 (full-length FXR; EcRE luciferase reporter): < 1000 nM | EC50 ([3]; SRC1-2 peptide, read-out: EC50 (μM) of FXR binding by AlphaScreen assay recruit SRC1-2): < 1 µM | EC50 ([3]; SRC2-3 peptide, read-out: EC50 (μM) of FXR binding by AlphaScreen assay recruit SRC2-3): < 1 µM | viability at 20 µM ([4]; 20 uM): 100 ± 7% | viability at 40 µM ([4]; 40 uM): 74 ± 7% | viability at 20 µM ([5]; 20 uM): 73% | viability at 40 µM ([5]; 40 uM): 30 ± 7% | viability at 20 µM ([6]; HCT-116, 20 uM): 65 ± 7% | viability at 40 µM ([6]; HCT-116, 40 uM): 53 ± 7% | viability at 20 µM ([7]; 20 uM): 100 ± 7% | viability at 40 µM ([7]; 40 uM): 95 ± 7%
